Target: T1, PPARγ (Homo sapiens, UniProt P37231)
T1 construct: gene PPARG; GAL4-PPARγ
T1 sequence (P37231 1-505): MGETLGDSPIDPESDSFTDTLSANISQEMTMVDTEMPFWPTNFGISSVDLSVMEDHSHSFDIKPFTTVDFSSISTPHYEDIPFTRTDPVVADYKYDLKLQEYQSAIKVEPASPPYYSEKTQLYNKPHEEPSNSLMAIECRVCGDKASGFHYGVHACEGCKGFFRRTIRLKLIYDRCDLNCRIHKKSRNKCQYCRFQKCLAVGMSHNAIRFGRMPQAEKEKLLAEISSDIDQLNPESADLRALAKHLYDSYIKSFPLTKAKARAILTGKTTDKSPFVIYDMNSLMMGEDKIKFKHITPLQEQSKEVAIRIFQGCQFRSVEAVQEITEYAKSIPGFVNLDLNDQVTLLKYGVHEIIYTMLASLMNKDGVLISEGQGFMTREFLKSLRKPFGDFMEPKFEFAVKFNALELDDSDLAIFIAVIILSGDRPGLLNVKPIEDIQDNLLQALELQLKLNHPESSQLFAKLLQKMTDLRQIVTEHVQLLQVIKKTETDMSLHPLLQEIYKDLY
Experiment: GAL4-PPARγ/GAL4-luc luciferase transactivation in transfected HEK-293T cells (reference full agonist)
Format: cell-based

CN(CCOc1ccc(CC2SC(=O)NC2=O)cc1)c1ccccn1 (stereo not shown) [Rosiglitazone]
GAL4-PPARγ/GAL4-luc luciferase transactivation in transfected HEK-293T cells (re): RGZ activates PPARγ by acting mainly through the canonical binding site

— paper PMC5771072, “Benefits of VCE-003.2, a cannabigerol quinone derivative, against inflammation-driven neuronal deterioration in experimental Parkinson’s disease: possible involvement of different binding sites at the PPARγ receptor” (Journal of Neuroinflammation, 2018)
